# Test results as given in article PMC9860980, “Pharmacokinetics and Pharmacodynamics (PK/PD) of Corallopyronin A against Methicillin-Resistant Staphylococcus aureus” (Pharmaceutics, 2022).
# Like-named read-outs stand apart in the source and are kept apart here.
# Assays:
# [1] = system: MRSA; settings: against MRSA; cited from earlier work
# [2] = system: S. aureus strain ATCC 33591 (MRSA-strain)
# Method: Organ samples were thawed and homogenized using a Polytron tissue homogenizer after addition of 3 mL isotonic sodium chloride solution. First, a calibration curve was prepared by spiking different concentrations of CorA into the respective matrix from CD-1 mice. Caffeine was used as an internal standard. In addition, quality control samples (QCs) were prepared for CorA for every matrix. For PD samples, calibration curve and QCs were prepared for levofloxacin using the same protocol. The following extraction procedure was used: 50 µL of a sample (calibration sample, QCs, PK or PD sample) was extracted with 20 µL of acetic acid in water (10/90 (v/v)) and 30 µL acetonitrile for 5 min at 800 rpm on an Eppendorf MixMate® vortex mixer. Then, samples were spun down for 20 min at 4 °C and 4000 rpm and supernatants were transferred to new Greiner 96-well V-bottom plates. Samples were analyzed using an Agilent 1290 Infinity II HPLC system (Waldbronn, Germany) coupled to an AB Sciex QTrap6500plus mass spectrometer (Darmstadt, Germany). LC conditions were as follows: column: Agilent Zorbax Exlipse Plus C18, 50 × 2.1 mm, 1.8 µm; temperature: 30 °C; injection volume: 5 µL per sample; flow rate: 800 µL/min. Samples were run under buffered conditions: A: 95% water + 5% acetonitrile + 5 mM ammonium acetate + 40 µL/L acetic acid; B: 95% acetonitrile + 5% water + 5 mM ammonium acetate + 40 µL/L acetic acid. The gradient was as follows: 99% A at 0 min, 99% A until 0.1 min, 99–0% A from 0.1 min to 4.0 min, 0% A until 4.5 min. Mass transitions for controls and compounds are depicted in Table S1. Peaks of PK samples were quantified using the calibration curve. The accuracy of the calibration curve was determined using QCs independently prepared on different days. PK parameters were determined using a non-compartmental analysis with PKSolver.
# Inocula were prepared as described previously with the modification that isotonic sodium chloride solution was used instead of PBS [25]. For the neutropenic thigh and the neutropenic lung infection model the S. aureus strain ATCC 33591 (MRSA-strain) was used. For the neutropenic lung infection model an inoculum of 2 × 10^9 cfu/mL was used. For the neutropenic thigh infection model an inoculum of 7 × 10^5 cfu/mL was used.
# The model was conducted as described previously. In brief, the following groups were used: (1) inoculum control group with terminal endpoint at 2 h post infection to determine baseline inoculum in vivo; (2) vehicle-treated group receiving 20 mg/kg SC tramadol and vehicle (PEG400/PBS (80:20 (v/v)); (3) levofloxacin group 5 mg/kg IP three times a day (TID) (t = 2, 6 and 10 h post infection); (4) CorA 60 mg/kg IP TID (t = 2, 6 and 10 h post infection) and (5) CorA 100 mg/kg IP BID (t = 2 and 6 h post infection). The endpoint for groups no. 2–5 was 24 h post infection. A solution of […].
compound,measurement,setting,value
"C/C=C/C/C=C(\C)C(O)CC/C(C)=C/C=C(\C)C(=O)c1c(O)cc([C@H](C)CC/C=C/NC(=O)OC)oc1=O (some centres unmarked) [CorA, Corallopyronin A]",in vitro minimal inhibitory concentration (MIC),[1],0.125 µg/mL
same,terminal thigh concentrations lower than in the group at 100 mg/kg IP BID,"[2]; 60 mg/kg IP BID (so in the source) vs 100 mg/kg IP BID, thigh",more than 10 fold
same,terminal level in lung tissue,[2]; 60 mg/kg IP TID,not detected
same,bacterial burden in lung tissue,"[2]; 60 mg/kg IP TID, 24 h post infection, secondary seeding, vs vehicle",did not show any effect
same,bacterial burden in thigh tissue,"[2]; 60 mg/kg IP TID, 24 h post infection, vs vehicle",did not show any effect
same,terminal level in lung tissue,[2]; 100 mg/kg IP BID,detected at low levels
same,terminal liver levels lower than at 60 mg/kg IP TID,"[2]; 100 mg/kg IP BID vs 60 mg/kg IP TID, liver",more than 5 fold
same,bacterial burden in thigh,"[2]; 100 mg/kg IP BID, 24 h post infection",significant reduction
